# Source: patent US11471414B2, “Compositions and methods for the treatment and prophylaxis of surgical site infections” (Polypid Ltd., priority 2014, dated 2022)
# Tested on: Staphylococcus aureus (ATCC 29213) preformed biofilm
# Assay: MBEC Physiology and Genetics Assay, eradication of an established biofilm
# Assay type: cell-based
# Procedure: The effectiveness of tri-calcium phosphate granules coated with a matrix composition according to embodiments of the invention in eradicating established biofilm was measured using the MBEC™ (Minimum Biofilm Eradication Concentration) Physiology and Genetics Assay.
# MBEC™ Test Method Overview: MBEC™ test method specifies the operational parameters required to grow and treat different bacterial biofilms in a high throughput screening assay. The assay device consists of a plastic lid with ninety-six (96) pegs and a corresponding receiver plate with ninety-six (96) individual wells that have a maximum 200 μL working volume. Biofilm is established on the pegs in a batch culture based model (i.e., no flow of nutrients into or out of an individual well) with gentle mixing. The established biofilm is transferred to a new receiver plate for disinfectant efficacy testing.
# Test Organisms: Staphylococcus aureus (an osteomyelitis-related strains); source: ATCC
# 29213; Dilution/Challenge Media: 1,000×TSB+10% human serum 24 hrs; Growth Media/agar: Tryptic Soy Broth/Tryptic Soy agar for 24 hrs Aerobic cond.
# TEST METHOD overview: The experimental process for high-throughput antimicrobial susceptibility testing using the hydroxyapatite coated MBEC™ P&G assay. This standard protocol was broken into a series of small steps, each of which is detailed in the sections below.
# Using a cryogenic stock (at −70° C.), a first sub-culture of Staphylococcus aureus was streaked out on OSA (organism specific agar). The plates were incubated at appropriate growth conditions for 20±2.0 hours and further stored at 4° C.
# A second sub-culture taken from the first sub-culture was streaked out on OSA. The plates were incubated at appropriate growth conditions for 20±2.0 hours. An isolated colony from the second sub-culture was aseptically removed from the OSA plate and inoculated into 50 mL of sterile bacterial liquid growth broth, followed by incubation appropriate growth conditions for 20±2.0 hours (at 150 rpm).
# The inoculum was adjusted to an approximate cell density of 10^6 CFU/mL.
# 150 μL of the remaining diluted organism were placed in each of the corresponding wells of an MBEC™ P&G device except the sterility controls (Table 5). The device was placed on an orbital shaker (110 RPM) in a humidified incubator at 37±1° C.
# The biofilm formed on the lid of the MBEC device was rinsed by dipping the lid into saline (˜30 seconds) to remove planktonic cells. The lid was then put on top of the challenge plate and incubated on a rotary shaker at 110 rpm at 35±2° C. for 24±2 hours.
# After incubation (specified above), planktonic cells were rinsed off the biofilm by dipping the lid into saline (˜20-30 seconds). The lid was then transferred to a neutralizer/recovery plate and put in a sonicator (˜30 minutes) to dislodge surviving biofilm.
# Following sonication, 100 μL from each well of the MBEC™ plate, were put into the first 12 empty wells of the first row of a 96 well-micro titer plate and were further diluted by 10 fold down each of the 8 rows (10^0-10^7 dilution). 5 μL from each well were then used for spotting prepared OSA plates. The agar plates were incubated at 37±1° C. and counted after approximately 24-48 hours of incubation. The arithmetic mean of the number of colonies counted on the plates was calculated.
# 100 μL of the sterile neutralizer was added to each well of the recovery plate to top up the volume back to 200 μL. The refilled plate is incubated at 35±2° C. for 24±2 hours.
# Comparator MBEC results were determined following the 24±2 hour incubation using the plate reader.
# The log density for one peg was calculated as follows: LOG10(CFU/peg)=LOG10[(X/B)(D)] where: X=mean CFU; B=volume plated (0.02 mL) and D=dilution.
# The overall biofilm accumulation was determined by calculating the mean of the log densities calculated.
# LOG10 reduction for each dilution was calculated as follows: LOG10 Reduction=Mean LOG10 Growth Control−Mean LOG10 Test Sample.
substance,measurement,setting,value
Gentamicin,Log Reduction (Log R) vs. GC (growth control),D 0.5,1.11
same,Average Log10 CFU/peg recoveries,D 0.5 (μg),3.48 Log10 CFU/peg
same,Log Reduction (Log R) vs. GC (growth control),D 1.0,1.38
same,Average Log10 CFU/peg recoveries,D 1.0 (μg),3.21 Log10 CFU/peg
same,Log Reduction (Log R) vs. GC (growth control),D 2.0,2.90
same,Average Log10 CFU/peg recoveries,D 2.0 (μg),1.69 Log10 CFU/peg
same,Log Reduction (Log R) vs. GC (growth control),D 4.0,3.29
same,Average Log10 CFU/peg recoveries,D 4.0 (μg),1.31 Log10 CFU/peg
same,Log Reduction (Log R) vs. GC (growth control),D 8.0,4.59
same,Average Log10 CFU/peg recoveries,D 8.0 (μg),0.00 Log10 CFU/peg
same,Log Reduction (Log R) vs. GC (growth control),D 16,4.59
same,Average Log10 CFU/peg recoveries,D 16 (μg),0.00 Log10 CFU/peg
same,Log Reduction (Log R) vs. GC (growth control),D 32,4.59
same,Average Log10 CFU/peg recoveries,D 32 (μg),0.00 Log10 CFU/peg
